From ChEMBL document CHEMBL5338804 (J Med Chem, 2023)
≈ marks a conversion by molar mass, not a printed value.

Columns and labels:
[1] = biological target: AP2-associated protein kinase 1 (Homo sapiens, UniProt Q2M2I8); experiment: Inhibition of AAK1 (unknown origin)
[2] = Cmax in C57BL/6 mouse at 10 mg/kg, po by LC-MS/MS analysis; assay type: ADME, organism-based; set-up: dose 10 mg/kg, route po; conditions: in vivo
[3] = Thermodynamic aqueous solubility of the compound at pH 7.4 incubated for 18 to 24 hrs by HPLC-UV analysis; assay type: physicochemical; conditions: aqueous medium, time 18-24 hrs, read-out: Therm_solubility
[4] = MRT in C57BL/6 mouse at 2 mg/kg, iv by LC-MS/MS analysis; assay type: ADME, organism-based; conditions: in vivo
[5] = Metabolic stability in human liver microsomes assessed as parent compound remaining at 0.5 uM measured after 10 mins in presence of NADPH by LC-MS/MS analysis; assay type: ADME, Microsome; conditions: read-out: Stability
[6] = biological target: Protein kinase C theta type (Homo sapiens, UniProt Q04759); experiment: Inhibition of PKC theta (unknown origin)
[7] = biological target: Tyrosine-protein kinase JAK2 (Homo sapiens, UniProt O60674); experiment: Inhibition of JAK2 (unknown origin)
[8] = biological target: Interleukin-1 receptor-associated kinase 1 (Homo sapiens, UniProt P51617); experiment: Inhibition of IRAK1 (unknown origin)
[9] = biological target: Cyclin-dependent kinase 2 (Homo sapiens, UniProt P24941); experiment: Inhibition of CDK2 (unknown origin)
[10] = Ratio of unbound drug concentration in mouse brain to plasma at 10 uM incubated for 5 hrs by equilibrium dialysis method; assay type: ADME, cell-free; conditions: read-out: K(p,uu,brain)
[11] = Permeability of the compound from basolateral to apical side in human Caco-2 cells at 3 uM incubated for 2 hrs by LC-MS/MS analysis; assay type: ADME, cell-based; conditions: read-out: permeability
[12] = biological target: Glycogen synthase kinase-3 beta (Homo sapiens, UniProt P49841, H355L); experiment: Displacement of FL-KRREILSRRP[ps]ERYR-NH2 from human recombinant N-terminal His6-tagged GSK-3-beta (14 to 306 residues) H355L mutant expressed in baculovirus-infected Sf21 cells incubated for 20 hrs by fluorescence based analysis
[13] = Plasma concentration in LaFerla 3x transgenic Alzheimer's disease C57BL/6 mouse model at 10 mg/kg, po measured after 5 hrs; assay type: ADME, organism-based
Mus musculus = experiment: Anti-alzheimer activity against LaFerla 3x transgenic Alzheimer's disease C57BL/6 mouse model assessed as reduction in tau phosphorylation at Ser396 residue in brain at 10 mg/kg, po measured after 5 hrs by ELISA; assay type: functional
[14] = Clearance in C57BL/6 mouse at 2 mg/kg, iv by LC-MS/MS analysis; assay type: ADME, organism-based; conditions: in vivo
[15] = biological target: Cyclin-dependent kinase 5 (Homo sapiens, UniProt Q00535); experiment: Inhibition of CDK5 (unknown origin)
[16] = Protein binding in rat plasma assessed as unbound fraction at 10 uM incubated for 5 hrs by equilibrium dialysis method; assay type: ADME, cell-free
[17] = AUC (total) in C57BL/6 mouse at 10 mg/kg, po by LC-MS/MS analysis; assay type: ADME, organism-based; set-up: dose 10 mg/kg, route po; conditions: in vivo
[18] = biological target: Mitogen-activated protein kinase 14 (Homo sapiens, UniProt Q16539); experiment: Inhibition of MAPK p38-alpha (unknown origin)
Aurora kinase A = Aurora kinase A (Mus musculus, UniProt P97477); experiment: Inhibition of mouse Aurora kinase A
[19] = biological target: Ribosomal protein S6 kinase alpha-1 (Homo sapiens, UniProt Q15418); experiment: Inhibition of RSK1 (unknown origin)
Aurora kinase B = Aurora kinase B (Homo sapiens, UniProt Q96GD4); experiment: Inhibition of Aurora kinase B (unknown origin)
[20] = Volume of distribution at steady state in C57BL/6 mouse at 2 mg/kg, iv by LC-MS/MS analysis; assay type: ADME, organism-based; conditions: in vivo, read-out: Vdss
[21] = Permeability of the compound at 100 uM incubated for 4 hrs at pH 7.4 by PAMPA assay; assay type: ADME; conditions: read-out: permeability
[22] = biological target: MAP kinase-activated protein kinase 2 (Homo sapiens, UniProt P49137); experiment: Inhibition of MK2 (unknown origin)
[23] = biological target: Tyrosine-protein kinase JAK1 (Homo sapiens, UniProt P23458); experiment: Inhibition of JAK1 (unknown origin)
[24] = biological target: Non-receptor tyrosine-protein kinase TYK2 (Homo sapiens, UniProt P29597); experiment: Inhibition of TYK2 (unknown origin)
[25] = Thermodynamic aqueous solubility of the compound at pH 1 incubated for 18 to 24 hrs by HPLC-UV analysis; assay type: physicochemical; conditions: aqueous medium, time 18-24 hrs, read-out: Therm_solubility
[26] = biological target: Casein kinase I isoform alpha (Homo sapiens, UniProt P48729); experiment: Inhibition of CK1A1 (unknown origin)
[27] = biological target: Tyrosine-protein kinase BTK (Homo sapiens, UniProt Q06187); experiment: Inhibition of BTK (unknown origin)
[28] = biological target: Interleukin-1 receptor-associated kinase 4 (Homo sapiens, UniProt Q9NWZ3); experiment: Inhibition of IRAK4 (unknown origin)
[29] = Ratio of drug concentration in brain to plasma in LaFerla 3x transgenic Alzheimer's disease C57BL/6 mouse model at 10 mg/kg, po measured after 5 hrs; assay type: ADME, organism-based; conditions: read-out: BPR
[30] = Metabolic stability in mouse liver microsomes assessed as parent compound remaining at 0.5 uM measured after 10 mins in presence of NADPH by LC-MS/MS analysis; assay type: ADME, Microsome; conditions: read-out: Stability
[31] = biological target: Tyrosine-protein kinase Lck (Homo sapiens, UniProt P06239); experiment: Inhibition of LCK (unknown origin)
[32] = Permeability of the compound at 100 uM incubated for 4 hrs at pH 5.5 by PAMPA assay; assay type: ADME; conditions: read-out: permeability
[33] = Oral bioavailability in C57BL/6 mouse at 10 mg/kg by LC-MS/MS analysis; assay type: ADME, organism-based; conditions: in vivo
[34] = biological target: Mast/stem cell growth factor receptor Kit (Homo sapiens, UniProt P10721); experiment: Inhibition of c-Kit (unknown origin)
[35] = biological target: Glycogen synthase kinase-3 (Homo sapiens, UniProt P49840+P49841); experiment: Inhibition of GSK-3 in human U2OS cells transfected with beta-catenin GFP and 4R1N tau plasmid assessed as inhibition of Tau phosphorylation at Ser396 residues by high-content imaging assay; assay type: cell-based
[36] = Half life in C57BL/6 mouse at 2 mg/kg, iv by LC-MS/MS analysis; assay type: ADME, organism-based; conditions: in vivo
[37] = biological target: Glycogen synthase kinase-3 alpha (Homo sapiens, UniProt P49840); experiment: Displacement of FL-KRREILSRRP[ps]ERYR-NH2 from human recombinant full length GST-tagged GSK-3-alpha expressed in insect cells incubated for 20 hrs by fluorescence based analysis; set-up: species or system Insect cell
[38] = biological target: Tyrosine-protein kinase SYK (Homo sapiens, UniProt P43405); experiment: Inhibition of SYK (unknown origin)
[39] = Protein binding in mouse plasma assessed as unbound fraction at 10 uM incubated for 5 hrs by equilibrium dialysis method; assay type: ADME, cell-free
[40] = Metabolic stability in rat liver microsomes assessed as parent compound remaining at 0.5 uM measured after 10 mins in presence of NADPH by LC-MS/MS analysis; assay type: ADME, Microsome; conditions: read-out: Stability
[41] = Protein binding in human plasma assessed as unbound fraction at 10 uM incubated for 5 hrs by equilibrium dialysis method; assay type: ADME, cell-free
[42] = biological target: Platelet-derived growth factor receptor beta (Homo sapiens, UniProt P09619); experiment: Inhibition of PDGFR-beta (unknown origin)
[43] = biological target: Insulin-like growth factor 1 receptor (Homo sapiens, UniProt P08069); experiment: Inhibition of IGF1R (unknown origin)
[44] = biological target: Casein kinase II subunit alpha' (Homo sapiens, UniProt P19784); experiment: Inhibition of CK2A2 (unknown origin)
[45] = Protein binding in mouse brain assessed as unbound fraction at 1 uM incubated for 4 hrs by LC-MS analysis; assay type: ADME, tissue-based
[46] = Drug uptake in brain of LaFerla 3x transgenic Alzheimer's disease C57BL/6 mouse model at 10 mg/kg, po measured after 5 hrs; assay type: ADME, organism-based; conditions: read-out: Drug uptake
[47] = biological target: Casein kinase II subunit alpha (Homo sapiens, UniProt P68400); experiment: Inhibition of CK2A1 (unknown origin)
[48] = biological target: Serine/threonine-protein kinase pim-1 (Homo sapiens, UniProt P11309); experiment: Inhibition of PIM1 (unknown origin)
[49] = Permeability of the compound from apical to basolateral side in human Caco-2 cells at 3 uM incubated for 2 hrs by LC-MS/MS analysis; assay type: ADME, cell-based; conditions: read-out: permeability

Chain of Tyrosine-protein kinase Lck (P06239 whole entry): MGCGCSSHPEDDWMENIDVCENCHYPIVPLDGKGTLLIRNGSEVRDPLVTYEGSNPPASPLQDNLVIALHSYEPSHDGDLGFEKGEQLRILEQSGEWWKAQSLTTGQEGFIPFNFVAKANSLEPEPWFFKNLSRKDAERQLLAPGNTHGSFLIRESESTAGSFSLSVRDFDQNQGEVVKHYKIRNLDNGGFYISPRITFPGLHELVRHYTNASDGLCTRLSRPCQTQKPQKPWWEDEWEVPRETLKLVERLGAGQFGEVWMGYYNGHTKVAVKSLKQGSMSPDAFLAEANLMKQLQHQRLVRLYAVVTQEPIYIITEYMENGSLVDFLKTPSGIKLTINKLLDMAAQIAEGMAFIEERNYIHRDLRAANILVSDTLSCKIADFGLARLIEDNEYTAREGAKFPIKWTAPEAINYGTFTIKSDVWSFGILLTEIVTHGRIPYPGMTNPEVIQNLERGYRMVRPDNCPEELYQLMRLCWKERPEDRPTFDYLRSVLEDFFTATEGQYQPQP
Chain of Aurora kinase B (Q96GD4 whole entry): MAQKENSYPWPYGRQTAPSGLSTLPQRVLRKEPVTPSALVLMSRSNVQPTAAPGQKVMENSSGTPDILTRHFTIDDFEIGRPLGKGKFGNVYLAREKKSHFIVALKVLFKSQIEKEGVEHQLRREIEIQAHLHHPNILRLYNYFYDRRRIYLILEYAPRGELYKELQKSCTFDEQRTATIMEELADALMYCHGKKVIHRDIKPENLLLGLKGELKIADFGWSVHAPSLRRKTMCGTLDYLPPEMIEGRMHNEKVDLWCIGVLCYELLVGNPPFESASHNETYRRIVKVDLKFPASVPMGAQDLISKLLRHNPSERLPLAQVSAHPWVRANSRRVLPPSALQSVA
Chain of Aurora kinase A (P97477 whole entry): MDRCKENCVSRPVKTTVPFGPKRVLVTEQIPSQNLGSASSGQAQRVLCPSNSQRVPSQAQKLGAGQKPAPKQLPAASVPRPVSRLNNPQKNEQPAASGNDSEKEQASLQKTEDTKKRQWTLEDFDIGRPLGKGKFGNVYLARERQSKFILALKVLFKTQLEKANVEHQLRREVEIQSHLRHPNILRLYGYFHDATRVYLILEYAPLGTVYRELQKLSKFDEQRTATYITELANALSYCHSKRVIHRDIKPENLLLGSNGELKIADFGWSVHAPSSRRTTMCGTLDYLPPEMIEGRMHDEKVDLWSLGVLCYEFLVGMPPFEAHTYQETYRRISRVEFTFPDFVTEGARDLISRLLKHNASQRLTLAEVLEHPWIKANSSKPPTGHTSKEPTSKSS
Chain of Casein kinase I isoform alpha (P48729 whole entry, canonical isoform): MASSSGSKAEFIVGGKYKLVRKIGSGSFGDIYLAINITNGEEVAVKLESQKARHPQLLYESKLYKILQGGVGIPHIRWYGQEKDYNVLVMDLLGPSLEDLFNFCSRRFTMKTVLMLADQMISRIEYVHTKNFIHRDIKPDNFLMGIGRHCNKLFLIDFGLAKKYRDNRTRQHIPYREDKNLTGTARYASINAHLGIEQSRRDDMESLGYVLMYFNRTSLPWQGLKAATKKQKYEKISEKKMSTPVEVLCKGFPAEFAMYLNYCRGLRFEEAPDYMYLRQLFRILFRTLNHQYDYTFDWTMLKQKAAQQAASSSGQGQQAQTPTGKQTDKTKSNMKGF
Chain of Tyrosine-protein kinase BTK (Q06187 whole entry): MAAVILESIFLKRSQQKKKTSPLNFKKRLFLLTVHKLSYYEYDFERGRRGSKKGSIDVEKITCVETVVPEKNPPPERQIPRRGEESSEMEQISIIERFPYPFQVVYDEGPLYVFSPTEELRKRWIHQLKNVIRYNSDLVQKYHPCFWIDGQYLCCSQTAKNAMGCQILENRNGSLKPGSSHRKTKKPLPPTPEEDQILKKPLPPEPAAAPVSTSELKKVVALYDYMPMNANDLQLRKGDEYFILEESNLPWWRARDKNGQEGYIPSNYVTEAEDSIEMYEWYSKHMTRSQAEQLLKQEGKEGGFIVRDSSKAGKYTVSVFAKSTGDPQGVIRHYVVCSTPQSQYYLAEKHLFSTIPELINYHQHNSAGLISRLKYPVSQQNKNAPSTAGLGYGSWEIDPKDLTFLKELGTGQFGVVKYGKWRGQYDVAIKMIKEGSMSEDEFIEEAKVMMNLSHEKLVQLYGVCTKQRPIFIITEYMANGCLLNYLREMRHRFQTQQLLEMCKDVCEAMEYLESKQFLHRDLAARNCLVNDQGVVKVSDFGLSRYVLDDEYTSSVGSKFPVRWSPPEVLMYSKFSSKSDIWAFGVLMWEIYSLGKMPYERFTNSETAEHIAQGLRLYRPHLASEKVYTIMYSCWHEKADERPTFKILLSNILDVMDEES
Chain of Mitogen-activated protein kinase 14 (Q16539 whole entry): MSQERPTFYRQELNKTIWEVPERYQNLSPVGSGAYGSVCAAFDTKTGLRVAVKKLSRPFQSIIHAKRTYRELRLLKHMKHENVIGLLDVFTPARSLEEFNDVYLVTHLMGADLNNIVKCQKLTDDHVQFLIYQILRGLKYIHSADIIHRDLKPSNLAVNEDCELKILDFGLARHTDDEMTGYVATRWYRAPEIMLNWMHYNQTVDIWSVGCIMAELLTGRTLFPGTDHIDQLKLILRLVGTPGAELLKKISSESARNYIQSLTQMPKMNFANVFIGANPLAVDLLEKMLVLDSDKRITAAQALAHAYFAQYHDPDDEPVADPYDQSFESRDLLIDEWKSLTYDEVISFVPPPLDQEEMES
Chain of Non-receptor tyrosine-protein kinase TYK2 (P29597 whole entry): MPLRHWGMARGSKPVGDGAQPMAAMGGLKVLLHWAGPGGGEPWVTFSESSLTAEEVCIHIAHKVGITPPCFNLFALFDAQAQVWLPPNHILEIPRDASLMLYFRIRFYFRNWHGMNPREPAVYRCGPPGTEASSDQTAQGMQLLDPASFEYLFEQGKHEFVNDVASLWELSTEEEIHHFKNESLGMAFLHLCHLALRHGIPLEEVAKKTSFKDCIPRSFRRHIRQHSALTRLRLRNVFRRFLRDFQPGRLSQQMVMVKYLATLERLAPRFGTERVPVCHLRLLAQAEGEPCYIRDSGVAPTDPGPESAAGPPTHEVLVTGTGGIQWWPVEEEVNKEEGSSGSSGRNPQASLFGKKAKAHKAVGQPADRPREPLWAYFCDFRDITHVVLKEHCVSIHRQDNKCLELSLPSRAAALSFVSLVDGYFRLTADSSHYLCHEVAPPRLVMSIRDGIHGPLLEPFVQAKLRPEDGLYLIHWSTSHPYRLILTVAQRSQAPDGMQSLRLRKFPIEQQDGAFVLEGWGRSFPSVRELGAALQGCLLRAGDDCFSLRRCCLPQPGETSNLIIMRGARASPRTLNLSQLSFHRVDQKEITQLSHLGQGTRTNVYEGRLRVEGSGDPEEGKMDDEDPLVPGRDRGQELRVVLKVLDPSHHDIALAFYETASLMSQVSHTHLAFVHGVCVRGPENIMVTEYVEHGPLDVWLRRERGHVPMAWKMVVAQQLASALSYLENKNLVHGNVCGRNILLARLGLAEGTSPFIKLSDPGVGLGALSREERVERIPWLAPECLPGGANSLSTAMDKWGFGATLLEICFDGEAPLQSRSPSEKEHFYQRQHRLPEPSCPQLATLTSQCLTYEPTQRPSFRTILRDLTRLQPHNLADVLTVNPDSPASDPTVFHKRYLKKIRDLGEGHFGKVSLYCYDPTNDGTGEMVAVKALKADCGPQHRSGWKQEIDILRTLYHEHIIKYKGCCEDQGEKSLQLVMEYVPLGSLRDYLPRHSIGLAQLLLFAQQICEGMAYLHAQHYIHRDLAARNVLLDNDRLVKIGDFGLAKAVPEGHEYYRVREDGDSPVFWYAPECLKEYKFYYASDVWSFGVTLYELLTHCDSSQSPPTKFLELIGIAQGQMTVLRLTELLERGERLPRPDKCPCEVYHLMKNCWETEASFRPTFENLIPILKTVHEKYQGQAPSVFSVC
Chain of Casein kinase II subunit alpha' (P19784 whole entry): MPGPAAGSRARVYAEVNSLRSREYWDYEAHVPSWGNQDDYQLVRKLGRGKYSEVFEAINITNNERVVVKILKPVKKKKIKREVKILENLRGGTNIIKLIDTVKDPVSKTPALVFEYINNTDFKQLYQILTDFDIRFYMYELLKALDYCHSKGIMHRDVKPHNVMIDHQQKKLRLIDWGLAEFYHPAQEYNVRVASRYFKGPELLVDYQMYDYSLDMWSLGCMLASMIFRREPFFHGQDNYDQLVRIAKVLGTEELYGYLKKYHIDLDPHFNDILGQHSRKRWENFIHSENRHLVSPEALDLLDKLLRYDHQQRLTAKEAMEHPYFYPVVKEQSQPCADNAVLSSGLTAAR
Chain of Serine/threonine-protein kinase pim-1 (P11309 whole entry): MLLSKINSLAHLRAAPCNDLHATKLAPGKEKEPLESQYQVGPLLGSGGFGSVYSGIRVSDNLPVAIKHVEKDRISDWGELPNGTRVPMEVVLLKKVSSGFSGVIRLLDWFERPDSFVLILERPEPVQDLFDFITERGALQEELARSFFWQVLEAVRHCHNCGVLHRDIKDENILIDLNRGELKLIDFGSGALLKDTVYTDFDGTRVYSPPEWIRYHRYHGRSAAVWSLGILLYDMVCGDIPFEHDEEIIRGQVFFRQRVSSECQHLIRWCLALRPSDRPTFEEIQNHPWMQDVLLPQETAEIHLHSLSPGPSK
Chain of Glycogen synthase kinase-3 beta (P49841 whole entry, looked up, stated change not applied, the tested form may be a part): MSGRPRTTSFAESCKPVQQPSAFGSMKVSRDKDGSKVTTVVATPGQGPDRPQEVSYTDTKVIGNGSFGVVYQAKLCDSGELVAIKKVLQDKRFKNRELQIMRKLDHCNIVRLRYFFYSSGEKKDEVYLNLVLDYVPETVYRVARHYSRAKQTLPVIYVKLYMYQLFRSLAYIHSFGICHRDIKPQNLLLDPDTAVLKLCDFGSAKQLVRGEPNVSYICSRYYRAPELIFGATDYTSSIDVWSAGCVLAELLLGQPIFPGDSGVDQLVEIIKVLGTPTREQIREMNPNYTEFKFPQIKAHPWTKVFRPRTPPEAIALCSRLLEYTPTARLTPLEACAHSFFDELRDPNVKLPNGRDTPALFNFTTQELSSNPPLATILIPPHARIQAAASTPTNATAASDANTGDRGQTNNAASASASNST

Q: For `N#Cc1ccc(Nc2nccc(C(=O)Nc3cnccc3-c3ccc(F)cc3)n2)cc1`, which IC50 [1] is on record?
A: > 2 µM

Q: What about the Cmax [2] of the same compound?
A: 3500 nM

Q: And the solubility thermodynamic [3]?
A: < 1 µg/mL

Q: And the MRT [4]?
A: 3.9 h

Q: And the remaining at 10 min, 0.5 µM [5]?
A: 79%

Q: And the IC50 [6]?
A: 17 µM

Q: What about the IC50 [7] of the same compound?
A: 13 µM

Q: And the IC50 [8]?
A: > 2 µM

Q: What about the IC50 [9] of the same compound?
A: 0.22 µM

Q: And the Kp uu at 5 h, 10 µM [10]?
A: 0.4

Q: What about the Papp B→A at 2 h, 3 µM [11] of the same compound?
A: 9.8 ×10⁻⁶ cm/s

Q: And the IC50 [12]?
A: 0.00035 µM

Q: What about the concentration at 5 h [13] of the same compound?
A: 410 nM

Q: What about the inhibition in vivo at 10 mg/kg (Mus musculus) of the same compound?
A: 33%

Q: What about the clearance [14] of the same compound?
A: 23.3 mL/min/kg

Q: What about the IC50 [15] of the same compound?
A: 1.3 µM

Q: And the fraction unbound at 5 h, 10 µM [16]?
A: 0.019

Q: What about the AUC [17] of the same compound?
A: 24.3 µM·h

Q: What about the IC50 [18] of the same compound?
A: 23 µM

Q: What about the IC50 (Aurora kinase A) of the same compound?
A: 17 µM

Q: What about the IC50 [19] of the same compound?
A: > 50 µM

Q: What about the IC50 (Aurora kinase B) of the same compound?
A: 11 µM

Q: What about the Vd [20] of the same compound?
A: 5.4 L/kg

Q: What about the Papp at 4 h, 100 µM [21] of the same compound?
A: 84 ×10⁻⁶ cm/s

Q: And the IC50 [22]?
A: > 50 µM

Q: And the IC50 [23]?
A: 31 µM

Q: And the IC50 [24]?
A: > 50 µM

Q: What about the solubility thermodynamic [25] of the same compound?
A: 16 µg/mL (≈ 39 µM)

Q: And the IC50 [26]?
A: > 2 µM

Q: And the IC50 [27]?
A: 13 µM

Q: And the IC50 [28]?
A: > 50 µM

Q: What about the Kp at 5 h [29] of the same compound?
A: 0.9

Q: And the remaining at 10 min, 0.5 µM [30]?
A: 66%

Q: What about the IC50 [31] of the same compound?
A: > 2 µM

Q: What about the Papp at 4 h, 100 µM [32] of the same compound?
A: 121 ×10⁻⁶ cm/s

Q: And the bioavailability [33]?
A: 100%

Q: And the IC50 [34]?
A: 5.6 µM

Q: What about the IC50 [35] of the same compound?
A: 0.01 µM

Q: And the half-life [36]?
A: 2.5 h

Q: And the IC50 [37]?
A: 0.00025 µM

Q: What about the IC50 [38] of the same compound?
A: > 50 µM

Q: What about the fraction unbound at 5 h, 10 µM [39] of the same compound?
A: 0.03

Q: What about the remaining at 10 min, 0.5 µM [40] of the same compound?
A: 66%

Q: What about the fraction unbound at 5 h, 10 µM [41] of the same compound?
A: 0.011

Q: And the IC50 [42]?
A: 37 µM

Q: And the IC50 [43]?
A: 17 µM

Q: What about the IC50 [44] of the same compound?
A: > 2 µM

Q: And the fraction unbound at 4 h, 1 µM [45]?
A: 0.012

Q: What about the concentration at 5 h [46] of the same compound?
A: 370 nM

Q: What about the IC50 [47] of the same compound?
A: > 50 µM

Q: And the IC50 [48]?
A: 0.72 µM

Q: And the Papp A→B at 2 h, 3 µM [49]?
A: 24.4 ×10⁻⁶ cm/s
